The text below walks through data of PubChem BioAssay AID608 (Sanford-Burnham Center for Chemical Genomics, 2007).

The structures appear in SMILES notation. Calls of active or inactive are those of the source. No rule for the calls is given here.

Broadly, the Kd is the equilibrium constant for the complex coming apart.

The test deals with Peptidyl-prolyl cis-trans isomerase FKBP1A (Homo sapiens) (UniProt P62942). The test is described as follows: small-molecule binding to FKBP12 – biophysical, NMR detection (AID 608). The note with it: purified FKBP12.
Chain of Peptidyl-prolyl cis-trans isomerase FKBP1A (Homo sapiens) (P62942 whole entry, looked up): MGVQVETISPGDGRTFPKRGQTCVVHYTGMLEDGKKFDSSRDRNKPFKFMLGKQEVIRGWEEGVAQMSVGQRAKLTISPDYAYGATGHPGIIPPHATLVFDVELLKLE
Turning to `NC(C(=O)O)C(O)C(=O)O` (stereo unspecified), the Kd is > 4 mM (inactive).

On to `OCc1ccc(-n2ccnc2)cc1`, for which the Kd was > 4 mM (inactive). With `O=C1CC(=O)N(c2cccc(Cl)c2)N1` the figure was > 4 mM (inactive); with `O=c1[nH]nnc2sc3c(c12)CCCC3`, > 4 mM (inactive). As for `Brc1ccccc1Cn1c(-c2cscn2)nc2ccccc21`, the entry is “inactive”; as for `O=C(O)CCC(=O)Nc1nccs1`, > 4 mM (inactive). As for `Cc1ccc(OCC(=O)N2CC(C)OC(C)C2)cc1C` (stereo unspecified), the figure is > 4 mM (inactive); as for `C[C@H]1O[C@@H](O[C@H]2[C@@H](O)C[C@H](O[C@H]3[C@@H](O)C[C@H](O[C@H]4CC[C@]5(C)C6C[C@@H](O)[C@]7(C)[C@@H](C8=CC(=O)OC8)CC[C@]7(O)C6CC[C@@H]5C4)O[C@@H]3C)O[C@@H]2C)C[C@H](O)[C@@H]1O` (stereo partly specified), > 4 mM (inactive). `Cc1nnc(SCC(=O)N2CCc3ccccc32)s1`: the Kd was > 4 mM (inactive).

Regarding `O=C(/C=C/c1ccc(O)cc1)c1ccc(O)cc1O`, the Kd was > 4 mM (inactive). For `Cc1ccc(OCC(=O)n2cnnc2N)c(C)c1`, the Kd was > 4 mM (inactive). With `COc1ccc(-c2ccc(=O)n(CC(N)=O)n2)cc1`, the Kd was > 4 mM (inactive). With `Nc1nc(N)nc(N2C(=O)c3ccccc3C2=O)n1` the figure was > 4 mM (inactive).

Regarding `Nc1cc2ccccc2cn1`, the Kd was > 4 mM (inactive). As for `O=c1c2ccccc2nc2n1CCCCN2`, the figure is > 4 mM (inactive). With `COc1ccc(/C=C2/C(=O)N=C(N)N2C)cc1OC` the figure was > 4 mM (inactive). In the case of `Nc1cccc(OCC(=O)N2CCOCC2)c1`, the Kd was > 4 mM (inactive). On to `Nc1cccc(NC(=O)c2cccs2)c1`, for which the Kd is > 4 mM (inactive).

With `CC(=O)CC1CCCCN1` (stereo unspecified), the Kd was > 4 mM (inactive). As for `O=C1COc2ccccc2C(=O)N1`, the figure is > 4 mM (inactive); as for `CC(=O)Nc1cc(O)cc(O)c1`, > 4 mM (inactive); as for `COC(=O)c1scc(S(C)(=O)=O)c1-n1cccc1`, > 4 mM (inactive).

`COc1ccc(-c2cc(=O)c3c(O)cc(O[C@@H]4O[C@H](CO[C@H]5O[C@H](C)[C@@H](O)[C@H](O)[C@@H]5O)[C@@H](O)[C@H](O)[C@H]4O)cc3o2)cc1O`: the Kd is > 4 mM (inactive). As for `CCCNC(=O)c1cnc2n(c1=O)CCS2`, the Kd is > 4 mM (inactive).

Turning to `Cc1cc(CN2C(=O)c3ccccc3C2=O)on1`, the Kd was > 4 mM (inactive).

Regarding `NC(=O)c1c[nH]c2ccccc12`, the Kd was > 4 mM (inactive). As for `CC1(O)CC2C(CC1O)C2(C)C` (stereo unspecified), the figure is > 4 mM (inactive); as for `COc1cc(CNCc2cccs2)ccc1OCC(=O)N1CCOCC1`, > 4 mM (inactive); as for `O=c1c[n+]([O-])c2ccccc2n1OCc1ccccn1`, > 4 mM (inactive).

Regarding `O=C1CNCc2[nH]c3ccccc3c2N1c1ccccc1`, the Kd was > 4 mM (inactive). In the case of `CC1CCN(S(=O)(=O)N(C)C)CC1`, the Kd is > 4 mM (inactive). As for `CC1(C)C(=O)[C@@H]2C[C@@]3(O)C4=CC(=O)O[C@@H](c5ccoc5)[C@]4(C)CCC3C(C)(C2=O)[C@H]1CC(=O)O` (stereo partly specified), the figure is > 4 mM (inactive); as for `Cc1nnc(SCC(N)=O)c2ccccc12`, > 4 mM (inactive); as for `COc1ccc(Cl)cc1NC(=O)C(N)=O`, > 4 mM (inactive).

In the case of `O=C(NC(=S)NCCO)c1ccccc1`, the Kd was > 4 mM (inactive). With `O=C1CCC(=O)N1c1ccc(O)cc1` the figure was > 4 mM (inactive). With `O=C1C2CC=CCC2C(=O)N1c1ccccc1O` (stereo unspecified), the Kd is > 4 mM (inactive). With `Cc1nc(N)sc1C(=O)N/N=C/c1ccncc1`, the Kd was > 4 mM (inactive). For `COn1c(=O)c(-c2ccco2)[n+]([O-])c2ccccc21`, the Kd is > 4 mM (inactive). Consider `O=C1c2ccccc2C(=O)c2c(O)c(O)cc(O)c21`, for which the Kd was > 4 mM (inactive). With `COC(=O)c1c(C)cc(OC(=O)c2c(C)cc(O)c(C=O)c2O)c(C)c1O` the figure was > 4 mM (inactive); with `Cc1c(C(=O)N2CCOCC2)oc2c1C(=O)CC(C)(C)C2`, > 4 mM (inactive). With `Cc1cc(=O)[nH]c(N2CCCCC2)n1` the figure was > 4 mM (inactive).

For the compound `CN1CCN(c2ccc(CN)cc2)CC1`, the Kd was > 4 mM (inactive). Regarding `Nc1ccccc1-c1nc2ccccc2[nH]1`, the Kd was 0.286 mM. With `O=C(COc1ccccc1O)NCCO` the figure was > 4 mM (inactive). With `CNC(=O)C(=O)Nc1cccc(Cl)c1` the figure was > 4 mM (inactive); with `CC(O)C(=O)N/N=C/c1ccccc1` (stereo unspecified), > 4 mM (inactive); with `OC[C@H]1O[C@@H](O[C@H]2[C@H](O)[C@@H](O)[C@@H](O)O[C@@H]2CO)[C@H](O)[C@@H](O)[C@@H]1O`, > 4 mM (inactive).

For the compound `COc1ccccc1NS(=O)(=O)c1c[nH]c(=O)[nH]c1=O`, the Kd was > 4 mM (inactive). As for `C/C=C/C=N/NC(=O)c1ccc(=O)n(C)c1`, the figure is > 4 mM (inactive); as for `COc1ccc2c3c([nH]c2c1)C(C)=NCC3`, > 4 mM (inactive). As for `O=C(O)C1CCCCN1Cc1ccccc1` (stereo unspecified), the figure is > 4 mM (inactive); as for `COc1ccc(-c2oc3c(CC=C(C)C)c(O[C@@H]4O[C@H](CO)[C@@H](O)[C@H](O)[C@H]4O)cc(O)c3c(=O)c2O[C@@H]2O[C@@H](C)[C@H](O)[C@@H](O)[C@H]2O)cc1`, > 4 mM (inactive); as for `O=C(c1ccc(F)cc1)C1CCNCC1`, > 4 mM (inactive). As to `Cn1c(=O)n(-c2cccc(Cl)c2)c(=O)n1C`, the Kd is > 4 mM (inactive).

For `S=c1ccc(N2CCCCC2)n[nH]1`, the Kd was > 4 mM (inactive). With `NC1CN2CCC1CC2` (stereo unspecified) the figure was > 4 mM (inactive); with `Cc1ccc(S(C)(=O)=O)s1`, > 4 mM (inactive). As for `N#Cc1sc2nc3c(c(-c4cccnc4)c2c1N)CCC3`, the figure is > 4 mM (inactive). With `O=S(=O)(N1CCCCC1)n1c(Cc2ccccc2)nc2ccccc21` the figure was > 4 mM (inactive); with `c1ccc(-c2noc(-c3ccco3)n2)nc1`, > 4 mM (inactive).

In the case of `NS(=O)(=O)c1ccc(NC(=S)NC2CC2)cc1`, the Kd is > 4 mM (inactive).

As for `CSc1nnnn1-c1cccc(O)c1`, the Kd was > 4 mM (inactive). As for `Nc1[nH]c(=S)ncc1S(=O)(=O)c1ccccc1`, the figure is > 4 mM (inactive). As for `O=C1C2C3C=CC(C3)C2C(=O)N1CCO` (stereo unspecified), the Kd was > 4 mM (inactive). Take `[O-][n+]1cc(O)c(CN2CCOCC2)c2ccccc21`: the Kd was > 4 mM (inactive). With `OCc1ccccc1CN1CCOCC1` the figure was > 4 mM (inactive); with `COC(=O)Nc1ccc2ncn(C)c(=O)c2c1`, > 4 mM (inactive).

For the compound `CCn1nnc(NC(=O)c2cc3ccccc3o2)n1`, the Kd was > 4 mM (inactive).

Take `Cc1nc(SCC#N)c2c3c(sc2n1)CCC3`: the Kd is > 4 mM (inactive). Turning to `O=C1CN(c2ccccc2)CC(=O)N1`, the Kd is > 4 mM (inactive). For the compound `Nc1cc(N)nc(SCc2cccnc2)n1`, the Kd is > 4 mM (inactive). With `C[C@]12CCC3C(CC[C@]4(O)C[C@@H](O)CC[C@]34C=O)[C@@]1(O)CCC2C1=CC(=O)OC1` (stereo partly specified) the figure was > 4 mM (inactive); with `CSc1ccc(C2NC(=O)CCC2[N+](=O)[O-])cc1` (stereo unspecified), > 4 mM (inactive). Take `Cn1c(=O)c2c([nH]c(=O)n2C)n(C)c1=O`: the Kd is > 4 mM (inactive). On to `O=C(O)C1Cc2c([nH]c3ccccc23)CN1` (stereo unspecified), for which the Kd is > 4 mM (inactive). As for `Cc1ccccc1NC(=O)CSc1ccnc(=O)[nH]1`, the figure is > 4 mM (inactive).

With `CC(C)c1ccc(CCC(=O)N2CCOCC2)cc1`, the Kd is 0.0023 mM. With `CC(=O)Oc1ccc2c(c1)c(C(C)=O)c(C)n2C` the figure was > 4 mM (inactive); with `O=c1ccn(Cc2ccccc2)c(=O)n1Cc1ccccc1`, > 4 mM (inactive).

`Cc1cc(F)c(F)c(C(=O)NC2CC2)c1Cl`: the Kd was > 4 mM (inactive). With `COc1cc2c(cc1OC)Cc1cc(OC)c(OC)cc1Cc1cc(OC)c(OC)cc1C2` the figure was > 4 mM (inactive). With `O=c1ccc2nc3ccccc3c(=O)n2[nH]1` the figure was > 4 mM (inactive); with `Nc1nc(CSc2ncn(-c3ccccc3)n2)cs1`, > 4 mM (inactive); with `Nc1nnc(-c2ccncc2)s1`, > 4 mM (inactive). With `O=C(CSc1nc2ccccc2[nH]1)N1CCCCC1` the figure was > 4 mM (inactive); with `Cc1cc(N)ccc1NC(=O)c1ccco1`, > 4 mM (inactive).

Turning to `Cn1cnc2c1c(=O)[nH]c(=O)n2C`, the Kd is > 4 mM (inactive). Turning to `Cn1c(CO)nc2ccccc21`, the Kd was > 4 mM (inactive). With `Cc1n[nH]c(C)c1CC(=O)O` the figure was > 4 mM (inactive); with `O=C(NCc1cccc(Cl)c1)c1cnccn1`, > 4 mM (inactive); with `COC(=O)c1ccc2nsnc2c1`, > 4 mM (inactive). With `CC(C)=CCc1c2c(c3occ(-c4ccc(O)cc4)c(=O)c3c1O)C=CC(C)(C)O2` the figure was > 4 mM (inactive); with `O=c1ccc2ccccc2o1`, > 4 mM (inactive). With `COc1cc(O)c(C(=O)c2ccccc2)cc1O` the figure was > 4 mM (inactive). `Nc1nc2c3ccccc3nc(Cc3ccccc3)n2n1`: the Kd was > 4 mM (inactive).

With `COc1c(O)cccc1O`, the Kd was > 4 mM (inactive). With `CC(C)c1c(O)c(-c2cc3c(c(C(C)C)c2O)CCC2C(C)(C)CCC[C@]32C)cc2c1CCC1C(C)(C)CCC[C@]21C` (stereo partly specified) the figure was > 4 mM (inactive); with `Cc1nc(-c2ccccc2)sc1CO`, > 4 mM (inactive); with `S=C(NCC1CCCO1)NC1CC1` (stereo unspecified), > 4 mM (inactive).
